For ten compounds, inhibition results are on record in ChEMBL document CHEMBL4000226, “Inhibitory potential of flavonoids on PtdIns(3,4,5)P3 binding with the phosphoinositide-dependent kinase 1 pleckstrin homology domain” (Bioorg Med Chem Lett, 2017).

The source made the active and inactive calls. The rule behind the calls is not given here.

For one assay, the target named is 3-phosphoinositide-dependent protein kinase 1 (Homo sapiens) (UniProt O15530). As to the kind of experiment: Inhibition of sucrose loaded POPC/POPE/POPS/PtdIns(3,4,5)P3 (59:20:20:1) liposome binding to eGFP-fused PDK1 PH domain (unknown origin) expressed in Escherichia coli BL21 after 10 mins by fluorescence spectrophotometry based pull down assay.
Chain of 3-phosphoinositide-dependent protein kinase 1 (Homo sapiens) (O15530 whole entry, looked up, the tested form may be a part): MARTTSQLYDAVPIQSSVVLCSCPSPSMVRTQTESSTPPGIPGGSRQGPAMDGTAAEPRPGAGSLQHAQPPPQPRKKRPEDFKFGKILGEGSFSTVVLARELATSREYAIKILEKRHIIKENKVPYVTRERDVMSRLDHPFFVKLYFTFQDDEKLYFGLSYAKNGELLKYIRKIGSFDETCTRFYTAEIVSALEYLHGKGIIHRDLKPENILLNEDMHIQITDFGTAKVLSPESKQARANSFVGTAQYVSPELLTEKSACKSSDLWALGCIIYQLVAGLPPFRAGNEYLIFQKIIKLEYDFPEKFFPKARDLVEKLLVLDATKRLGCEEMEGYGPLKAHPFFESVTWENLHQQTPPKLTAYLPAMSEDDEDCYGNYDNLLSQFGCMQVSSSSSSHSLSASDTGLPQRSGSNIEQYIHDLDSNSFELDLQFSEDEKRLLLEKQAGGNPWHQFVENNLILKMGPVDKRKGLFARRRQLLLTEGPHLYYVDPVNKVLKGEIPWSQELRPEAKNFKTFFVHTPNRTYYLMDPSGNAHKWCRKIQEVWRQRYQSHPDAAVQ
As to `O=c1c(O)c(-c2ccc(O)c(O)c2)oc2cc(O)ccc12`, the inhibition result was “Dose-dependent effect”.

For `O=c1c(O)c(-c2cc(O)c(O)c(O)c2)oc2cc(O)cc(O)c12`, the inhibition result was “Dose-dependent effect”.

Regarding `O=c1c(O)c(-c2ccc(O)c(O)c2)oc2cc(O)cc(O)c12`, the inhibition entry was “Dose-dependent effect”.

Turning to `O=c1c(O)c(-c2ccc(O)c(O)c2)oc2c(O)c(O)cc(O)c12`, the inhibition result was “Dose-dependent effect”.

For another assay the target is unchanged. Briefly: Inhibition of sucrose loaded POPC/POPE/POPS/PtdIns(3,4,5)P3 (59:20:20:1) liposome binding to eGFP-fused PDK1 PH domain (unknown origin) expressed in Escherichia coli BL21 at 10 uM after 10 mins by fluorescence spectrophotometry based pull down assay.
Consider `O=c1cc(-c2ccccc2)oc2cc(O)cc(O)c12`, for which the inhibition entry was “Active”.

As to `COc1ccc2c(=O)cc(-c3ccccc3)oc2c1OC`, the inhibition result is “Active”.

For the compound `COc1cc(OC)c2c(=O)cc(-c3ccccc3)oc2c1`, the inhibition entry is “Active”.

As to `O=c1c(O)c(-c2ccc(O)c(O)c2)oc2cc(O)ccc12`, the inhibition entry was “Active”.

As to `O=c1cc(-c2ccc(O)cc2)oc2cc(O)ccc12`, the inhibition entry is “Active”.

In the case of `O=c1c(O)c(-c2ccccc2)oc2cc(O)cc(O)c12`, the inhibition entry is “Active”.

On to `O=c1cc(-c2ccccc2)oc2ccccc12`, for which the inhibition entry is “Active”.
